Columns and labels:
UOK 262 = test: Clonogenic survival assay in cell lines of renal origin; type: cell-based, human; settings: FIG. 4C (BMN-673), FIG. 8J (mitomycin C)
[1] = LC/MS analysis of intratumoral BMN-673; type: in vivo, mouse; settings: 24 h after single gavage dose of 1 or 10 mg/kg, LC/MS (FIG. 4J)
Text: In vivo efficacy studies: HEK293FT xenografts. Female athymic nu/nu mice (Hsd:Athymic Nude-Foxnlnu, Envigo) were used for all in vivo xenograft studies. Mice were quarantined for at least 1 week before experimental manipulation. Tumors were formed using shRNA-expressing versions of the tumorigenic human embryonic kidney cell-derived line, HEK293FT. HEK293FT is a subline of HEK293 cells that has been transformed by expression of SV40 Large T-antigen. […], or shCTRL (non-targeted control) expressing HEK293FT cells were implanted subcutaneously (5×10^6 cells in 0.1 cc PBS) in the right flank of nude mice. Two efficacy studies were conducted. In one, mice were randomized into treatment and non-treated groups (10 mice/group) at day 3, with treatment initiation 4 days post implant. […] For both studies, mice were visually observed daily and tumors were measured three times per week by calipers to determine tumor volume using the formula: Volume=L×W×W×0.532. […] P-values were determined by ANOVA with repeated measures. […] The concentrations of BMN-673 in tumor samples were determined using liquid chromatography with tandem mass spectrometry (LC-MS/MS). […] BMN673 was monitored using the positive electrospray ionization mode at the most sensitive and specific mass transition, m/z 381.0>228.8. […]

poly-ADP-ribose (PAR) = test: Poly-ADP-Ribose ELISA in xenograft tumors; type: in vivo, mouse; settings: 24 h post single dose (FIG. 4K)
Procedure: Tumors developed with mice on a rodent diet including doxycycline just as in the in vivo efficacy studies. Once tumors were at 80 mm^3 mice were gavaged with BMN-673 at 1 or 10 mg/kg or vehicle. Tumors were collected 24 hours later for and frozen at −80° C. The concentrations of BMN-673 in tumor samples were determined using liquid chromatography with tandem mass spectrometry (LC-MS/MS). In brief, an aliquot (30 μL) tumor homogenate was protein precipitated with volumes of methanol, and 5 μL of supernatant was injected into the LC-MS/MS system. LC-MS/MS analyses were performed on a Waters LC-MS/MS system consisting a Waters AQUITY UPLC system coupled with a TQ-XS triple quadrupole mass spectrometer (Milford, Mass., USA). […] BMN673 was monitored using the positive electrospray ionization mode at the most sensitive and specific mass transition, m/z 381.0>228.8. The linear calibration curve was established at BMN673 concentration range of 5-5000 nM in mouse serum. The precision and accuracy of quality control samples were within generally acceptable criteria for bioanalytical methods. Poly-ADP-Ribose ELISA. Poly-ADP-Ribose ELISA was performed per manufacturer's protocol using the PARP in vivo Pharmacodynamic Assay II Kit (Trevigen). 2 μg of protein input was used per replicate and luminescence reading were converted to pg PAR/μg protein using a standard curve. Statistics and Reproducibility. […]

## Cn1ncnc1[C@H]1c2n[nH]c(=O)c3cc(F)cc(c23)N[C@@H]1c1ccc(F)cc1 [BMN-673, BMN-673 (Talazoparib)]
UOK 262
  sensitivity of UOK 262 relative to FH-proficient cell lines of renal origin, clonogenic survival: markedly more sensitive
[1]
  intra-tumoral BMN-673 levels, shSDHB vs shCTRL HEK293FT tumors: no significant difference
poly-ADP-ribose (PAR)
  PAR levels by ELISA, SDHB knockdown vs shCTRL tumors: reduced to the same extent

Reference: patent publication US11311538B2, “Compositions and methods for targeting cancers” (YALE UNIVERSITY, priority 2018, dated 2022)
